Where “and” joins values, the source holds several entries; their conditions need not be identical. Equal entries are not always repeated. Where two headings read alike, the source gives them in different places. Numbered stars: 1 amine (or outer) side, 2 acyl side, 3 side chain; on linkers, the order of the positions; unused ones are H or OH. Square brackets hold non-standard residues; d marks the D form. Peptide text beside a SMILES is read from it. X1 = O=C(c1ccc(-c2ccc(N3CCNCC3)cc2)c(CN[*:1])c1)[*:2]
Tests used:
[1] = target: integrin α4β1 (Homo sapiens, UniProt P05556+P13612); assay: Whole blood ligand displacement (receptor occupancy): biotinylated rhVCAM-1 binding to α4β7-negative Th memory cells; format: cell-based; conditions: read-out: VCAM Competition IC50 (receptor occupancy)
Procedure: Receptor occupancy (RO) in primary cells was determined by measuring the amount of biotinylated human recombinant MAdCAM-1-FC or human recombinant VCAM-1-Fc bound to selected cell populations using flow cytometry. Human recombinant MAdCAM-1-FC or human recombinant VCAM-1-FC (R&D systems) were biotinylated using commercially available reagents and protocol (Pierce). Whole blood was collected from human donors in sodium heparin tubes. […] Cells were washed twice with 1 mL of 1×DPBS calcium magnesium free(CMF) (ThermoFisher Scientific) and resuspended in 100 μL of DPBS CMF. […] Cells were washed with 1 mL stain buffer-FBS (BD Biosciences) and resuspended in 100 μl stain Buffer-FBS (BD Biosciences) containing 4 mM MnCl2. […] Cells were then washed with 1 mL stain buffer-FBS and resuspended in 100 μl stain buffer-FBS. The cells were incubated in the dark for 30 minutes at room temperature with 1 μl Streptavidin APC (Biolegend 0.2 mg/ml) and a panel of antibodies for the detection of memory T helper a4b7-positive cells subset. And amount of 5.0 μl each of the following antibodies were used; CD45 FITC (BioLegend 200 μg/ml), CD29 APC Cy7 (BioLegend 100 μg/ml), Integrin beta7 PE, (BioLegend concentration 50 μg/mL), CD49d […] (BioLegend 50 μg/mL), CD3 […] […] Cell population were determined using the following markers, CD45+, CD3+, CD4+, CD45RO+, CD49d+, integrin β7, biotinylated ligands.

[2] = target: T1, integrin α4β7 (Homo sapiens, UniProt P13612+P26010); assay: Whole blood ligand displacement (receptor occupancy): biotinylated rhMAdCAM-1 binding to α4β7+ Th memory cells; format: cell-based; conditions: for selectivity of RO versus α4β1 (fold difference in IC50 between assays): whole blood, α4β7 versus α4β1
T1 sequence (P13612 34-1032): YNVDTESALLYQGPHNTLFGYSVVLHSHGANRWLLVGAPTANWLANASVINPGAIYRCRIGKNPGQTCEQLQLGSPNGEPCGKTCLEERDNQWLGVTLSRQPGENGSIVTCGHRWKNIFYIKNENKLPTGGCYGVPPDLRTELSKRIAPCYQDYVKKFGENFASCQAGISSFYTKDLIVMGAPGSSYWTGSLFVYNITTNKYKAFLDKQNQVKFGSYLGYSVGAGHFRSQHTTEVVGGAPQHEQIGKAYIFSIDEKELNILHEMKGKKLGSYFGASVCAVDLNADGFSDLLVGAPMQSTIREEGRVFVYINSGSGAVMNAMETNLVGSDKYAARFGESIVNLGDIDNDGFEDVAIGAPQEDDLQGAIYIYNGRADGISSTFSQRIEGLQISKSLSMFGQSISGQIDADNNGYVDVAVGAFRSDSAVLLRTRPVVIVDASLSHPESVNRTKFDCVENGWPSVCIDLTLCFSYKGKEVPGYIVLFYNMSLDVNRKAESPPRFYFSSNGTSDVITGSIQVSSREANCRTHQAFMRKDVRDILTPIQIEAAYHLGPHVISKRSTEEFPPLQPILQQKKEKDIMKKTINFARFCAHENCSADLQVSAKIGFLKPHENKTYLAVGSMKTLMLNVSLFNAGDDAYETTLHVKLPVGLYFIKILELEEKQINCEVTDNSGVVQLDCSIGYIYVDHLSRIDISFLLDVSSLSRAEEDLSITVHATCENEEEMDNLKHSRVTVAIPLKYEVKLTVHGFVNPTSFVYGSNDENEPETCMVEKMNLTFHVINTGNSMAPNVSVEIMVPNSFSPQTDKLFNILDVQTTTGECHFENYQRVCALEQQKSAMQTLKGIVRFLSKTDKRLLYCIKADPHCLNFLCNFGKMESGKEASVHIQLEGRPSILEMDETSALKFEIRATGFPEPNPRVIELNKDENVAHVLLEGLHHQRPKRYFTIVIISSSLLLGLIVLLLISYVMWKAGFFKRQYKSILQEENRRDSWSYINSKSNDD
T1 sequence (P26010 20-798): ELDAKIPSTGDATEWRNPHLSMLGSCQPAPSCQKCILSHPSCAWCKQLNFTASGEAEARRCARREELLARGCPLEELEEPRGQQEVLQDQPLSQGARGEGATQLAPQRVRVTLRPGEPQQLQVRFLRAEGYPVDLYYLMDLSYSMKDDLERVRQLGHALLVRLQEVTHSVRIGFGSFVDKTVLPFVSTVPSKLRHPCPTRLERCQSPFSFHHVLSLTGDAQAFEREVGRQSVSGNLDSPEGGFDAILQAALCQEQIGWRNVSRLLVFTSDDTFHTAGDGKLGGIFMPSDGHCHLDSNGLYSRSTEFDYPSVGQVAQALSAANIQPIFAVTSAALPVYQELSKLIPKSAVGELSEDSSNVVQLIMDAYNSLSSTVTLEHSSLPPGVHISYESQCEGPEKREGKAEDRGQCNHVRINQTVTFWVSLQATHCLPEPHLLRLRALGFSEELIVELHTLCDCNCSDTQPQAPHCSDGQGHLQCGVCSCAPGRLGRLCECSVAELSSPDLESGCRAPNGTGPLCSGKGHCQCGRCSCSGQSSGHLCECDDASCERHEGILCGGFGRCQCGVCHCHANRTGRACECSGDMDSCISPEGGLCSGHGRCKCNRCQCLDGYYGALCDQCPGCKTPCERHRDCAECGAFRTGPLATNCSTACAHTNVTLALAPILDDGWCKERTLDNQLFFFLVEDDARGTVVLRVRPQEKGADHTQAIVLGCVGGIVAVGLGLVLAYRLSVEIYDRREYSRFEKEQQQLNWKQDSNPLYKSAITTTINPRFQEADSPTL
Procedure: Receptor occupancy (RO) in primary cells was determined by measuring the amount of biotinylated human recombinant MAdCAM-1-FC or human recombinant VCAM-1-Fc bound to selected cell populations using flow cytometry. Human recombinant MAdCAM-1-FC or human recombinant VCAM-1-FC (R&D systems) were biotinylated using commercially available reagents and protocol (Pierce). Whole blood was collected from human donors in sodium heparin tubes. […] Cells were washed twice with 1 mL of 1×DPBS calcium magnesium free(CMF) (ThermoFisher Scientific) and resuspended in 100 μL of DPBS CMF. […] Cells were washed with 1 mL stain buffer-FBS (BD Biosciences) and resuspended in 100 μl stain Buffer-FBS (BD Biosciences) containing 4 mM MnCl2. […] Cells were then washed with 1 mL stain buffer-FBS and resuspended in 100 μl stain buffer-FBS. The cells were incubated in the dark for 30 minutes at room temperature with 1 μl Streptavidin APC (Biolegend 0.2 mg/ml) and a panel of antibodies for the detection of memory T helper a4b7-positive cells subset. And amount of 5.0 μl each of the following antibodies were used; CD45 FITC (BioLegend 200 μg/ml), CD29 APC Cy7 (BioLegend 100 μg/ml), Integrin beta7 PE, (BioLegend concentration 50 μg/mL), CD49d […] (BioLegend 50 μg/mL), CD3 […] (BioLegend 30 μg/mL), CD4 PECy7 (BioLegend 100 μg/mL), CD45RO PerCP, BioLegend 200 μg/mL). The cells were then washed with stain-buffer-FBS and resuspended in 150 μL stain buffer-FBS for acquisition on the flow cytometer (BD FACSCantoTM flow cytometer and […] software). FACS data was acquire by electronic gating on the basis of forward versus side scatter, The cytometer was set to collect 20,000 events in each tube. Cell population were determined using the following markers, CD45+, CD3+, CD4+, CD45RO+, CD49d+, integrin β7, biotinylated ligands.

[3] = α4β7 Th memory cells, human whole blood, read-out: MAdCAM-1 Competition IC50 (receptor occupancy)

integrin α4β1, sequence (P05556 21-798, one chain of several): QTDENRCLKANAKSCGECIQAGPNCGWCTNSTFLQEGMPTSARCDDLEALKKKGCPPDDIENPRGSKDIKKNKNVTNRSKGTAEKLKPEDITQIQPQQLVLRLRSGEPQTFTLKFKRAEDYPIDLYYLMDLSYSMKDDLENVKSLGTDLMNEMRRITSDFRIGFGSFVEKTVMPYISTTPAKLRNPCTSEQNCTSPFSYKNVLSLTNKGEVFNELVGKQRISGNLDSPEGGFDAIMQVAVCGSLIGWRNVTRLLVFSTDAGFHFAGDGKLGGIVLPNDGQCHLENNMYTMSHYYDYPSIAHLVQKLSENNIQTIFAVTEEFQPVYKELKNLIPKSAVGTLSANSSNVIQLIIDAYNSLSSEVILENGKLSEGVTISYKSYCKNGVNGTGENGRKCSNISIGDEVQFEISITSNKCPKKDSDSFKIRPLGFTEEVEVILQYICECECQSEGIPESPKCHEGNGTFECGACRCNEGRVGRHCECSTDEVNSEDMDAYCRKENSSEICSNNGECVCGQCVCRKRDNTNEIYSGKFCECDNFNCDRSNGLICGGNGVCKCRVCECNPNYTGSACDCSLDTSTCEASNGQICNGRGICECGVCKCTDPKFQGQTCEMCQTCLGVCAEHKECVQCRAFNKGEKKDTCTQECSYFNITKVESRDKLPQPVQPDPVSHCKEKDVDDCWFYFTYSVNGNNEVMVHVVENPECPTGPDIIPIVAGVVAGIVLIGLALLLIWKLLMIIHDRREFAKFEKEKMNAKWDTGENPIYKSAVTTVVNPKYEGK

Row | SMILES | IC50 [1] | competition with MAdCAM-1 on α4β7-positive primary cells, result in words ([2]; human whole blood) | IC50 ([2]; human whole blood, read-out: α4β7 RO IC50) | selectivity of RO versus α4β1 (fold difference in IC50 between assays) [2] | IC50 [2, 3] | α4β7 RO IC50 ([2]; human whole blood)
1 | CC(C)C[C@@H]1NC(=O)c2ccc(-c3ccc(N4CCNCC4)cc3)c(c2)CNC(=O)[C@@H]2CCCN2C(=O)[C@H](C)NC(=O)[C@H]([C@@H](C)O)NC(=O)[C@H](CC(=O)O)NC1=O [Compound 8] (cyclo(P[X1]LDTA)) | > 4000 nM | relatively weak concentration-response curve | > 4000 nM | no selectivity | > 4000 nM | –
2 | CC(C)C[C@@H]1NC(=O)c2ccc(-c3ccc(N4CCN(Cc5cccc(CN6CCN(c7ccc(-c8ccc9cc8CNC(=O)[C@@H]8CCCN8C(=O)[C@H](C)NC(=O)[C@H]([C@@H](C)O)NC(=O)[C@H](CC(=O)O)NC(=O)[C@H](CC(C)C)NC9=O)cc7)CC6)c5)CC4)cc3)c(c2)CNC(=O)[C@@H]2CCCN2C(=O)[C@H](C)NC(=O)[C@H]([C@@H](C)O)NC(=O)[C@H](CC(=O)O)NC1=O [Compound 18] | 123 nM | – | – | selectivity versus α4β1 | 25 nM and 24.7 nM | sub-micromolar

Reference: patent US11286281B2, “Homodetic cyclic peptides targeting alpha-4-beta-7 integrin” (priority 2017, dated 2022)
